Assay results: publication PMC8116058, “De novo macrocyclic peptides dissect energy coupling of a heterodimeric ABC transporter by multimode allosteric inhibition” (eLife, 2021)
Positions of bridges follow the written chain, without caps; N, C: chain ends. Non-standard residues stand in square brackets, D forms with d. Residues, ends and D or L forms follow the SMILES beside them. *: point of attachment. 5FAM = O=C1OC2(c3ccc(O)cc3Oc3cc(O)ccc32)c2ccc(C(=O)*)cc21; βAla = NCCC(=O)O

System: TmrAB
Method: In order to analyze the binding affinity and specificity of CPs to TmrAB, we established a fluorescence polarization assay. Fluorescein-labeled CP^Fs were incubated with increasing concentrations of TmrAB reconstituted in liposomes at a protein-to-lipid ratio of 1:20 (w/w). […] To address whether the CPs recognize a linear or non-linear epitope, we examined the binding of CP^Fs after disrupting the quaternary and tertiary structure of TmrAB complexes by adding anionic detergent SDS.
Figure 2. […] (A, B) Equilibrium binding analysis. Fluorescence anisotropy of CP^Fs (50 nM) was determined at λex/em = 485/520 nm with increasing concentrations of TmrAB which was reconstituted in liposomes. TmrAB concentrations were calculated based on the random (50/50%) orientation in proteoliposomes ([Stefan et al., 2020]). […] The difference in fluorescence polarization was normalized to free (0%) and 100% bound CP^F. Mean values ± SD (n = 3) are shown, and data were analyzed by a one-site binding model. […] Amounts of TmrA in input (I), flow-through (FT), wash fraction (W), and eluate (E) were analyzed by SDS-PAGE and immunoblotting (α-His). […] Bound TmrAB was eluted in SDS loading buffer and analyzed by SDS-PAGE (silver stain). […] TmrAB in input (I), flow-through (FT), washing fraction (W), and eluate (E) was analyzed by SDS-PAGE and immunoblotting (α-His). […] CP^F-TmrAB complexes were analyzed by gel filtration. […]

| Compound | Isolation of TmrAB from solubilized E. coli membranes |
| --- | --- |
| CC[C@H](C)[C@@H]1NC(=O)[C@H](Cc2c[nH]c3ccccc23)NC(=O)[C@H](CC(N)=O)NC(=O)[C@H](C)NC(=O)[C@H](CO)NC(=O)[C@@H]2CCCN2C(=O)[C@H](CC(=O)O)NC(=O)[C@@H](Cc2ccc(O)cc2)NC(=O)CSC[C@@H](C(=O)NCC(=O)N[C@@H](CO)C(=O)NCCC(=O)NCCC(=O)N[C@@H](CCCNC(=N)N)C(=O)N[C@@H](CCCCNC(=O)c2ccc3c(c2)C(=O)OC32c3ccc(O)cc3Oc3cc(O)ccc32)C(N)=O)NC(=O)[C@H]([C@@H](C)O)NC(=O)[C@H](CC(C)C)NC(=O)[C@H](CC(C)C)NC(=O)[C@H](C(C)C)NC(=O)[C@H](CC(C)C)NC1=O [CP13] ({CH2CO}-[dY]DPSANWILVLLTCGS[βAla][βAla]RK(5FAM)-NH2; thioether N-14; C-terminus assumed) | isolate intact TmrAB complexes |
| CC(C)[C@@H]1NC(=O)[C@H](Cc2ccccc2)NC(=O)[C@@H]2CCCN2C(=O)[C@H](CC(N)=O)NC(=O)[C@H](Cc2c[nH]c3ccccc23)NC(=O)[C@H](C(C)C)NC(=O)[C@H](Cc2ccc(O)cc2)NC(=O)[C@H](Cc2ccccc2)NC(=O)[C@@H](Cc2ccc(O)cc2)NC(=O)CSC[C@@H](C(=O)NCC(=O)N[C@@H](CO)C(=O)NCCC(=O)NCCC(=O)N[C@@H](CCCNC(=N)N)C(=O)N[C@@H](CCCCNC(=O)c2ccc3c(c2)C(=O)OC32c3ccc(O)cc3Oc3cc(O)ccc32)C(N)=O)NC(=O)[C@H](CCCCN)NC(=O)[C@H](Cc2ccccc2)NC1=O [CP14] ({CH2CO}-[dY]FYVWNPFVFKCGS[βAla][βAla]RK(5FAM)-NH2; thioether N-12; C-terminus assumed) | isolate intact TmrAB complexes |
